Measurements published in patent publication US20060147516A1, “Taste masking system for alprazolam” (CIMA LABS INC., priority 2005, published 2006).

Test: Solubility of alprazolam in ethanol (coating solvent)
Assay type: physicochemical
Settings: at working concentrations in ethanol
Protocol: The resulting particles were discreet, non-tacky and exceptionally workable. By working with various materials, and without wishing to be bound by a particular theory, it was determined that certain drugs react and/or interact with the polymer materials in the taste masking coating material, changing their individual characters rendering the material more tacky. The present invention intends to encompass only those active pharmaceutical ingredients that would not so adversely affect workability so as to prevent their effective use in forming discrete, preferably free flowing, well coated, well characterized solid supports, which may be further coated. Active pharmaceutical ingredients that may be used in addition to alprazolam in accordance with the present invention may include, without limitation, analgesics, anti-inflammatories, antipyretics, antibiotics, antimicrobials, anxiolytics, laxatives, anorexics, antihistamines, antidepressants, antiasthmatics, antidiuretics, antiflatuents, antimigraine agents, antispasmodics, sedatives, antihyperactives, antihypertensives, tranquilizers, decongestants, beta blockers, peptides, proteins, oligonucleotides and other substances of biological origin, and combinations thereof. Also contemplated are the drugs and pharmaceutically active ingredients described in Mantelle, U.S. Pat. No. 5,234,957, in columns 18 through 21. […]

In the case of `Cc1nnc2n1-c1ccc(Cl)cc1C(c1ccccc1)=NC2` [alprazolam], the solubility in ethanol is reported as “sparingly soluble”.
